Assay results as given in US20240261302A1, “METHODS OF TREATING NEURODEGENERATIVE DISEASES OR CONDITIONS” (FloraScience Inc., priority 2023, published 2024).

Legend:
[1] = Trolox Equivalent Antioxidant Capacity (TEAC) Assay; assay type: biochemical; details: 5 to 10 μM, compared to Trolox at 5 μM
Procedure: Trolox Equivalent Antioxidant Capacity (TEAC) Assay. Briefly, an aqueous 2,2′-azino-bis(3-ethylbenzothiazoline-6-sulfonic acid) (ABTS) solution (7 mM) was treated with potassium persulfate (K2S2O8) (2.5 mM) overnight at room temperature in the dark and diluted in water to an OD value of 0.7 at 734 nm. 190 μL of the diluted ABTS solution was added to a 96-well plate containing 10 μL of test compounds or Trolox at the desired concentrations. The plate was vigorously mixed and incubated for 4 min at room temperature in the dark. Optical absorbance was measured at 734 nm on a SpectraMax M5 microplate reader. The decrease in absorbance of the ABTS radical cation indicates the presence of antioxidants. Samples were analyzed in eight wells per independent experiment (n=8). The TEAC values of each sample were presented as the percentage of the standard Trolox at 5 μM.

HT22 cells = assay: MitoTracker Assay (mitochondrial mass); assay type: cell-based, mouse
Procedure: MitoTracker Assay. HT22 cells were seeded onto 96-well black walled plates at a density of 5,000 cells/well in DMEM supplemented with 10% FBS and 1% antibiotics. After the desired treatments, MitoTracker Orange CM−H2TMRos (Ex/Em=554/576 nm) and Hoechst 33342 (Ex/Em=360/460 nm) dyes were added to the cells and incubated under the same culture condition for 2 hr. Fluorescence was measured on a SpectraMax M5 microplate reader. Experiments were performed according to the manufacturer's instructions. Data were normalized for total protein/well. Each condition was analyzed in sixteen wells per independent experiment (n=16). Results were presented as the percentage of the controls with vehicle alone. Results were verified by live-cell imaging under a fluorescence microscope.

HT22 mt-GFP cells = assay: Mitochondrial Network Morphology Analysis; assay type: cell-based, mouse
Procedure: Mitochondrial Network Morphology Analysis. HT22 mt-GFP cells were seeded at 20,000 cells/well on glass coverslips in 24-well plates in DMEM supplemented with 10% FBS and 1% antibiotics. The following day, the cells were treated with the test compounds for the desired period of time. After rinsing with PBS, the cells on glass coverslips were fixed with 4% paraformaldehyde (pH 7.4) for 10 min at 37° C. After additional PBS rinses, the coverslips were mounted onto glass microslides with Fluoro-Gel (Electron Microscopy Sciences, Cat #17985-10). Z-stack images of fixed cells were acquired on a Zeiss LSM 880 rear port laser scanning confocal and Airyscan FAST microscope with ZEN Black software to trace and render cells in 3D. The mitochondrial network morphology parameters (n=20-25 cells/condition) were scored and analyzed with the MiNA module of ImageJ/Fiji software.

[2] = cited from earlier work

Question: Which “capacity to scavenge total free radicals (TEAC)” value [1] does the source give for `CCCCCc1cc(O)c2c(c1)OC(C)(C)c1ccc(C)cc1-2` [CBN, 6,6,9-Trimethyl-3-pentyl-benzo[c]chromen-1-ol] here?
Answer: relatively weak capacity

Question: And the “increase of MitoTracker fluorescence (mitochondrial mass)” value (HT22 cells; 5 μM, 16 hr, vs control group)?
Answer: 4.9%

Question: And the “mitochondrial mass with RSL3” value (HT22 cells; RSL3-induced oxytosis/ferroptosis)?
Answer: preserve the mitochondrial mass at the control level

Question: What about the RSL3-induced mitochondrial fragmentation (HT22 mt-GFP cells; 50 nM RSL3) of the same compound?
Answer: prevent the mitochondrial fragmentation

Question: And the “individual and summed branch lengths of mitochondria” value (HT22 mt-GFP cells; CBN alone)?
Answer: significantly increased

Question: What about the “mitochondrial footprints and network branches” value (HT22 mt-GFP cells; CBN alone) of the same compound?
Answer: no apparent effects

Question: And the bioavailability ([2]; after oral or inhaled administration)?
Answer: 10 to 40%

Question: And the brain penetrance ([2]; animals and humans)?
Answer: good brain penetrance

Question: And the “metabolic stability compared to THC” value ([2]; human, in vivo)?
Answer: metabolically more stable
